In PubChem BioAssay AID1053150 (Broad Institute, 2014):

Test system: HepG2 13C-glycerol triglyceride synthesis, LC-MS, 24 h
Experiment: inhibition of triglyceride synthesis rate, late-stage follow-up, mechanism study for Trib1 inducer project, cell-based, HepG2, LC-MS, 13C-glycerol labeling, cherry-pick (AID 1053150)
Conditions: hits give high values; dose or concentration not given here

## CN1C(=O)c2cc(NC(=O)c3ccc(C(F)(F)F)cc3)ccc2OC[C@@H]2O[C@H](CC(=O)NC3Cc4ccccc4C3)CC[C@@H]21
  TAG formation rate inhibition: 2%
